Where “and” joins values, the source holds several entries; their conditions need not be identical. Equal values may be shown once.
Experiments:
[1] = Stability of the five compounds in SD rat plasma (QC samples, UHPLC-ESI-MS/MS); type: in vitro ADME; conditions: for stability, Accuracy (measured versus nominal concentration) / stability, mean ± SD (measured concentration): SD rat plasma, n=5
Experimental: The method was validated according to the US Food and Drug Administration (FDA) Bioanalytical Method Validation Guidance as follows: [1] specificity was assessed by analyzing blank plasma, blank plasma spiked with standard solutions and rat plasma samples after oral administration. Each calibration curve was plotted using the concentration of the standard solution as the horizontal coordinate and the ratio of analyte to internal standard peak area as the vertical coordinate. The lower limit of quantification (LLOQ) refers to the lowest concentration, which is typically 10 times the signal-to-noise ratio. It has an acceptable accuracy of ± 20% and a precision of less than 20% [3]. Quality Control (QC) samples (low, medium and high concentrations) were prepared for each analyte. Five samples were analyzed at each concentration level and three consecutive batches were determined to calculate the accuracy and precision of the method. Extraction recovery was assessed by the ratio of the average peak area of routinely prepared QC samples (low, medium, and high concentrations) to the post-extraction plasma sample. Likewise, matrix effect was assessed by the ratio of peak areas between post-extraction samples spiked with analytes and mobile phases spiked with the same concentration of analytes.

[2] = male, Sprague Dawley, rat, in vivo, po, 352 mg/kg
Experimental: (§1) Blood samples were centrifuged at 3500 rpm for 5 min at 4°C. All plasma samples were then stored at -80°C until analysis.
(§2) All samples were stored in a refrigerator at -80°C and thawed at room temperature before processing. A 50 μL aliquot of plasma was added with 5 μL of the standard solution (or acetonitrile) and 100 μL of internal standard solution in turn, vortexed and mixed, then sonicated for 3 min, centrifuged at 14000 rpm for 10 min at low temperature. The supernatant was transferred to an autosampler vial and analyzed by UHPLC-ESI-MS/MS.
(§3) The mobile phase consisted of 0.1% formic acid solution (A) and acetonitrile (B).
(§4) The ESI ionization source was used and detected in MRM mode.
(§5) All data were presented as mean ± SD. Pharmacokinetic parameters including half-life (t1/2), maximum plasma time (Tmax) and concentration (Cmax), area under concentration-time curve (AUC0-t and AUC0-∞), clearance (CL), steady-state volume of distribution (Vz), and mean residence time (MRT) were analyzed by non-compartmental method using DAS Version 2.0 (Chinese Pharmacological Society, Beijing, China). […] The data were analyzed by Student’s t-test for two groups and one-way analysis of variance for multiple groups; p < 0.05 was considered statistically significant.

in vivo = conditions: male, Sprague Dawley, rat, po, 352 mg/kg
Experimental: as §1, §2, §3, §4, §5

[3] = nominal 20 ng/mL, 3 freeze-thaw cycles
[4] = nominal 20 ng/mL, 7 days at -80°C
[5] = nominal 20 ng/mL, Room temperature 24h
[6] = nominal 1000 ng/mL, 3 freeze-thaw cycles
[7] = nominal 1000 ng/mL, 7 days at -80°C
[8] = nominal 1000 ng/mL, Room temperature 24h
[9] = nominal 5000 ng/mL, 3 freeze-thaw cycles
[10] = nominal 5000 ng/mL, 7 days at -80°C
[11] = nominal 5000 ng/mL, Room temperature 24h

**Q.** For `C=C1CC[C@@H]2[C@H]3[C@@H](CC[C@H]2C)[C@@H](C)C(=O)O[C@H]13` [ARTI, Arteannuin I], which “Stability in plasma, measured concentration (mean ± SD)” value (from here on “Stability in plasma … (mean ± SD)”) ([1]; 3 freeze-thaw cycles, QC concentration 20 ng/mL) is on record?
**A.** The value was 21.0 ± 1.74 ng/mL and 21.0437 ng/mL.

**Q.** And the “Stability in plasma … (mean ± SD)” value ([1]; 3 freeze-thaw cycles, QC concentration 1000 ng/mL)?
**A.** The value was 942 ± 21.5 ng/mL and 941.9 ng/mL.

**Q.** And the “Stability in plasma … (mean ± SD)” value ([1]; 3 freeze-thaw cycles, QC concentration 5000 ng/mL)?
**A.** The value was 4532 ± 63.0 ng/mL and 4531.84 ng/mL.

**Q.** What about the “Stability in plasma … (mean ± SD)” value ([1]; 7 days at -80°C, QC concentration 20 ng/mL) of the same molecule?
**A.** The value was 20.6 ± 1.03 ng/mL and 20.6026 ng/mL.

**Q.** What about the “Stability in plasma … (mean ± SD)” value ([1]; 7 days at -80°C, QC concentration 1000 ng/mL) of the same molecule?
**A.** Its value is 920 ± 31.6 ng/mL and 920.324 ng/mL.

**Q.** What about the “Stability in plasma … (mean ± SD)” value ([1]; 7 days at -80°C, QC concentration 5000 ng/mL) of the same molecule?
**A.** Its value is 4563 ± 143 ng/mL and 4562.63 ng/mL.

**Q.** And the “Stability, measured concentration, mean ± SD” value ([1]; QC sample 20 ng/mL, 3 freeze-thaw cycles)?
**A.** Its value is 21.0 ± 1.74 ng/mL.

**Q.** What about the “Stability, measured concentration, mean ± SD” value ([1]; QC sample 20 ng/mL, 7 days at -80°C) of the same molecule?
**A.** Its value is 20.6 ± 1.03 ng/mL.

**Q.** And the “Stability, measured concentration, mean ± SD” value ([1]; QC sample 20 ng/mL, Room temperature 24h)?
**A.** Its value is 21.1 ± 0.78 ng/mL.

**Q.** What about the “Stability, measured concentration, mean ± SD” value ([1]; QC sample 1000 ng/mL, 3 freeze-thaw cycles) of the same molecule?
**A.** The value was 942 ± 21.5 ng/mL.

**Q.** What about the “Stability, measured concentration, mean ± SD” value ([1]; QC sample 1000 ng/mL, 7 days at -80°C) of the same molecule?
**A.** Its value is 920 ± 31.6 ng/mL.

**Q.** What about the “Stability, measured concentration, mean ± SD” value ([1]; QC sample 1000 ng/mL, Room temperature 24h) of the same molecule?
**A.** Its value is 1003 ± 39.5 ng/mL.

**Q.** What about the “Stability, measured concentration, mean ± SD” value ([1]; QC sample 5000 ng/mL, 3 freeze-thaw cycles) of the same molecule?
**A.** The value was 4532 ± 63.0 ng/mL.

**Q.** What about the “Stability, measured concentration, mean ± SD” value ([1]; QC sample 5000 ng/mL, 7 days at -80°C) of the same molecule?
**A.** The value was 4563 ± 143 ng/mL.

**Q.** And the “Stability, measured concentration, mean ± SD” value ([1]; QC sample 5000 ng/mL, Room temperature 24h)?
**A.** The value was 4765 ± 218 ng/mL.

**Q.** What about the “Stability in plasma … (mean ± SD)” value ([1]; Room temperature 24h, QC concentration 20 ng/mL) of the same molecule?
**A.** The value was 21.1 ± 0.78 ng/mL and 21.1244 ng/mL.

**Q.** And the “Stability in plasma … (mean ± SD)” value ([1]; Room temperature 24h, QC concentration 1000 ng/mL)?
**A.** Its value is 1002.91 ng/mL and 1003 ± 39.5 ng/mL.

**Q.** And the “Stability in plasma … (mean ± SD)” value ([1]; Room temperature 24h, QC concentration 5000 ng/mL)?
**A.** Its value is 4764.7 ng/mL and 4765 ± 218 ng/mL.

**Q.** What about the “stability, Accuracy (measured versus nominal concentration)” value [1, 3] of the same molecule?
**A.** Its value is 105.22%.

**Q.** What about the “stability, mean ± SD (measured concentration)” value (“stability, mean ± SD” below) [1, 3] of the same molecule?
**A.** The value was 21.0 ± 1.74 ng/mL.

**Q.** What about the “stability, Accuracy (measured versus nominal concentration)” value [1, 4] of the same molecule?
**A.** Its value is 103.01%.

**Q.** And the “stability, mean ± SD” value [1, 4]?
**A.** The value was 20.6 ± 1.03 ng/mL.

**Q.** And the “stability, Accuracy (measured versus nominal concentration)” value [1, 5]?
**A.** The value was 105.62%.

**Q.** What about the “stability, mean ± SD” value [1, 5] of the same molecule?
**A.** Its value is 21.1 ± 0.78 ng/mL.

**Q.** And the “stability, Accuracy (measured versus nominal concentration)” value [1, 6]?
**A.** Its value is 94.19%.

**Q.** And the “stability, mean ± SD” value [1, 6]?
**A.** The value was 942 ± 21.5 ng/mL.

**Q.** And the “stability, Accuracy (measured versus nominal concentration)” value [1, 7]?
**A.** The value was 92.03%.

**Q.** What about the “stability, mean ± SD” value [1, 7] of the same molecule?
**A.** The value was 920 ± 31.6 ng/mL.

**Q.** What about the “stability, Accuracy (measured versus nominal concentration)” value [1, 8] of the same molecule?
**A.** The value was 100.29%.

**Q.** What about the “stability, mean ± SD” value [1, 8] of the same molecule?
**A.** Its value is 1003 ± 39.5 ng/mL.

**Q.** And the “stability, Accuracy (measured versus nominal concentration)” value [1, 9]?
**A.** The value was 90.64%.

**Q.** What about the “stability, mean ± SD” value [1, 9] of the same molecule?
**A.** The value was 4532 ± 63.0 ng/mL.

**Q.** And the “stability, Accuracy (measured versus nominal concentration)” value [1, 10]?
**A.** Its value is 91.25%.

**Q.** And the “stability, mean ± SD” value [1, 10]?
**A.** Its value is 4563 ± 143 ng/mL.

**Q.** And the “stability, Accuracy (measured versus nominal concentration)” value [1, 11]?
**A.** Its value is 95.29%.

**Q.** What about the “stability, mean ± SD” value [1, 11] of the same molecule?
**A.** Its value is 4765 ± 218 ng/mL.

**Q.** And the CL [2]?
**A.** Its CL is 0.016 ± 0.006 L/h.

**Q.** And the Vz [2]?
**A.** The Vz was 0.114 ± 0.041 L.

**Q.** What about the AUC(0-inf) (in vivo) of the same molecule?
**A.** Its AUC(0-inf) is 1390 ± 586 ng·h/mL.

**Q.** And the AUC(0-t) (in vivo)?
**A.** Its AUC(0-t) is 990 ± 284 ng·h/mL.

**Q.** What about the Cmax (in vivo; Cmax) of the same molecule?
**A.** Its Cmax is 222 ± 46.4 ng/mL.

**Q.** And the MRT last (in vivo; MRT(0-t))?
**A.** Its MRT last is 4.34 ± 0.957 h.

**Q.** And the half-life (in vivo; t1/2)?
**A.** Its half-life is 5.14 ± 1.8 h.

Source: article PMC12058161, “The plant matrix of Artemisia annua L. for the treatment of malaria: Pharmacodynamic and pharmacokinetic studies” (PLOS One, 2025)
